Laboratory results reported in patent US20190350955A1, “METHODS AND PHARMACEUTICAL COMPOSITIONS FOR THE TREATMENT OF CARDIOMYOPATHIES” (INSERM (Institut National de la Sante et de la Recherche …, priority 2016, published 2019).
One block for each compound: values may come before it.

Tests used:
Nmrk2 promoter = Nmrk2 promoter luciferase reporter assay in NRC; type: cell-based, rat; conditions: for activity of the Nmrk2 promoter (p3009-Luc): NRC co-transfected with PPARα and RXR expression vectors; for Nmrk2 promoter induction by AICAR: NRC, p3009-Luc, antagonist added 30 minutes before AICAR for 24 h
Description: Isolation and Treatments of Neonatal Rat Cardiomyocytes (NRC) NRC were isolated as described previously (Diguet et al., 2011). 1-day-old rat pups were killed by decapitation and the cardiac ventricles were harvested and minced into 1 to 2-mm wide cubes with scissors. After washing with Tyrode solution, heart fragments were subjected up to 10 rounds of digestion with 0.05 mg/ml of Liberase Blendzyme 4 (Roche Applied Science) in 10 ml oxygenated Tyrode solution under agitation at 37° C. for 10 minutes. The supernatant of the first digestion was discarded and the following digestions were centrifuged and the cell pellet dissociated in 2 ml of DMEM, 10% FCS. The different fractions were pooled and centrifuged on a discontinuous Percoll gradient (bottom 58.5%. top 40.5%. 30 min. 3000 rpm) to enrich in cardiomyocytes at the interface between the 2 Percoll solutions. Non cardiac cells containing mainly fibroblasts were at the top of the tubes. Neonatal cardiomyocytes were seeded at a density 5×10^5 cells/well in 6-well plates coated with 10 μg/ml of laminin (BD Biosciences) in DMEM without pyruvate, with glucose 4.5 g/l, 10% horse serum, 5% FCS and cultured at 37° C. in 1% CO, atmosphere. To assay the impact on NAD^+ and Nmrk2 expression, Azaserin and FK866 drugs were added in the culture medium at day 5 and renewed everyday when the treatment was prolonged over several days. The same was done for NAD^+, NR and AICAR (5-aminoimidazole-4-carboxamide-1-β-D-ribofuranoside). AICAR was administrated for 24 h only. Doses are indicated in the legends. For treatment of transfected cells (see next section), AICAR, FK866 and PPAR agonists and antagonist were administrated 1 day after transfection. PPAR agonists: GW7647 for PPARα, GW501516 for PPARβ/δ and GW1929 for PPARγ; PPAR antagonists: GW6471 PPARα, GSK3787 for PPARβ/δ and GW9662 for PPARγ were ordered from SIGMA ALDRICH CHIMIE, Saint Quentin Fallavier, France.
The transcription initiation site of mouse Nmrk2 promoter was determined by 5′RACE and was conform to the reported site in the Genebank (NM_027120.2). The promoter of the mouse Nmrk2 gene was cloned from C57B16/N genomic DNA by PCR, and inserted into a pGL4.10[luc2] luciferase reporter plasmid (Promega prod no E6651). Subsequent deletions were performed by enzymatic digestion or primer mediated subcloning of the original fragment. 2.5×10^5 cardiomyocytes in 12-well plates were co-transfected at day 2 of culture with 1 μg of Nmrk2 pGL4.10[luc2] constructs and 100 ng of pGL4.73[hRluc/SV40] Vector (Promega prod no E6911) as an internal control of transfection efficiency using Lipofectamine 2000 (Lifetechnology) as indicated by the supplier. In the case of AICAR treatment, Luciferase activity was analyzed 48 h later with the Dual-Luciferase Assay System (Promega).
The pcDNA3 vectors harboring dominant negative AMPK, PPARα, PPARβ and PPARγ as well as RXR genes were kindly provided by Pr. Michel Raymondjean (El Hadri et al. (2015). AMPK Signaling Involvement for the Repression of the IL-1beta-Induced Group IIA Secretory Phospholipase A2 Expression in VSMCs. Journal 10, e0132498; Ravaux et al. (2007). Inhibition of interleukin-1 beta-induced group 11A secretory phospholipase A2 expression by peroxisome proliferator-activated receptors (PPARs) in rat vascular smooth muscle cells: cooperation between PPARbeta and the proto-oncogene BCL-6. Journal 27, 8374-8387; Woods et al. (2000). Characterization of the role of AMP-activated protein kinase in the regulation of glucose-activated gene expression using constitutively active and dominant negative forms of the kinase. Journal 20, 6704-6711). These vectors were cotransfected at a dose of 100 ng/well in 24-well plates with 500 ng of Nmrk2 luciferase constructs.

Lmna^H222P/H222P mice [1] = assay: NAD+ content quantification in heart and liver of treated Lmna H222P/H222P mice; type: in vivo, mouse; conditions: NAM 500 mg/kg/q.a.d. IP, from 17 weeks of age for 9 weeks, vs placebo
Description: Mice were bred in an accredited animal facility (accreditation number: C-75-13-08). All experiments on mice were approved by the Comité d'éthique en expérimentation animate Charles Darwin No 5. Mice Lmna^H222P/H222P were backcrossed 8 times to 129S2/SvPasOrlRj strain mice to obtain pure genetic background. Male mice used for the studies were maintained under a 12 h light/12 h dark cycle at constant temperature (23° C.) with free access to food and water. Nicotinamide riboside (NR) complementation: Animals at 17 weeks of age were fed for 9 weeks with either a chow diet (A04: Scientific Animal Food & Engineering) or a chow diet complemented with 0.25% of NR (kindly provided by ChromaDex, Inc. California) corresponding to a dose of 400 mg/kg/day for a mouse weighing 25 g eating 4 g of food per day. […]
Fresh mouse tissues were homogenized and processed according to previous report (Sander B J, Oelshlegel F J & Brewer G J (1976) Quantitative analysis of pyridine nucleotides in red blood cells: a single-step extraction procedure. Anal. Biochem. 71: 29-36). The concentration of NAD+ in heart tissue was determined using a spectrophotometric assay at 550 nm based on an alcohol dehydrogenase cycling reaction, in which a Methyl Thiazolyl Tetrazolium (MTT) is reduced to Formazan. […]

Lmna^H222P/H222P mice [2] = assay: qPCR of cardiac remodeling markers Myh7, Nppa, Col1a2 in heart; type: in vivo, mouse; conditions: NAM 500 mg/kg/q.a.d. IP, 9 weeks
Description: (§1) Mice were bred in an accredited animal facility (accreditation number: C-75-13-08). All experiments on mice were approved by the Comité d'éthique en expérimentation animate Charles Darwin No 5. Mice Lmna^H222P/H222P were backcrossed 8 times to 129S2/SvPasOrlRj strain mice to obtain pure genetic background. Male mice used for the studies were maintained under a 12 h light/12 h dark cycle at constant temperature (23° C.) with free access to food and water. Nicotinamide riboside (NR) complementation: Animals at 17 weeks of age were fed for 9 weeks with either a chow diet (A04: Scientific Animal Food & Engineering) or a chow diet complemented with 0.25% of NR (kindly provided by ChromaDex, Inc. California) corresponding to a dose of 400 mg/kg/day for a mouse weighing 25 g eating 4 g of food per day. Nicotinamide (NAM) treatment: Animals at 17 weeks of age were injected intraperitoneally (IP) every two days (q.a.d.) for 9 weeks with either physiologic serum or physiologic serum added with NAM at 50 mg/ml corresponding to a dose of 500 mg/kg for a mouse weighing 25 g.
Total RNAs were extracted from around 5 mg of mouse heart using RNeasy Mini kit (Qiagen). RNAs integrity were controlled on the Bioanalyzer 2100 (Agilent). […] Relative mRNA transcript levels calculated using the 2^ΔCT method were normalized by comparison to housekeeping mRNA.

Lmna^H222P/H222P mice [3] = assay: Echocardiography and heart size in treated Lmna H222P/H222P mice; type: in vivo, mouse; conditions: NAM 500 mg/kg/q.a.d. IP, 9 weeks, vs placebo
Description: as §1
Mouse transthoracic echocardiography was performed using an ACUSON 128XP/10 ultrasound with a 11 Mhz linear probe (Mountain View).MHz transducer applied to the chest wall. Mice were maintained under anesthetized with 0.75% isoflurane anaesthesia (0.75% in O2) and placed on a heating pad (25° C.). Left ventricular (LV) parameters were obtained from M-mode recordings in a modified short axis view. The intra ventricular septum (IVS), LV posterior wall (LVPW), LV diameter (LVD) in diastole and systole, the percentage of fractional shortening (FS) and the heart rate (HR) were measured from the mean of at least three separate cardiac cycles. A “blinded” echocardiographer, unaware of the genotype and the treatment, performed the examinations.

SRF^HKO mice = assay: RT-qPCR gene expression in SRF HKO heart; type: in vivo, mouse; conditions: i.p. administration from D8 to D15
From the text: (§2) Transgenic mice. All experiments with animals conformed to the Directive 2010/63/EU of the European Parliament and were approved by the ethics committee Charles Darvin #5 (agreement 00369.01). SRF^HKO mice bear the tamoxifen-inducible α-MHC-MerCrMer transgene and the Siffloxed allele (Sf/Sf) as described previously (Parlakian et al. (2005). Temporally controlled onset of dilated cardiomyopathy through disruption of the SRF gene in adult heart. Journal 112, 2930-2939; Tritsch et al. (2013). An SRF/miR-1 axis regulates NCX1 and Annexin A5 protein levels in the normal and failing heart. Journal 98, 372-380). Transgenic mice have been bred for more than 20 generations in C57BL/6N background. The mice were housed in standard animal facility (CEF. Hôpital Pitié Salpétrière, agreement A-75-13-15, 75013 Paris), under a 12-h dark/light cycle. Tamoxifen (Sigma T5648) was administrated by i.p. injection at a dose of 0.7 mg diluted in 100 μl peanut oil at day (D) 0, D1 and D2. (Sf/Sf) littermates injected with tamoxifen at the same time than mutant were used as controls.
Nicotinamide and nicotinamide riboside i.p. administration. Nicotinamide was diluted in saline at 300 mM. Nicotinamide riboside (NR) bromide salt stock solution (1M) was in 10 mM citric acid pH 6.0. For injection 3 volumes of NR stock solution was mixed extemporaneously with 7 volumes of PBS to obtain a 300 mM injectable solution at pH 7.2. Mice were injected daily at a dose of 1 μmole/g body weight.
SRF^HKO and control (Sf/Sf) mice were administered either rodent maintenance SAFE A04 diet containing 3.10% crude fat. 16.10% crude proteins. 26% starch and 1.9% sugar (Scientific Animal Food Engineering, Paris, France) or SAFE # A04 diet supplemented with NR. NR was provided by Chromadex under brand name NIAGEN (Irvine Calif. USA). The soft pellets were manually prepared every 5 days by mixing 1.65 g of NR into 500 g of powdered SAFE A04 diet and 235 ml of water to reach 2.24 mg of NR/g (wet weight). Control diet was prepared in the same way omitting NR. Mice had ad libitum access to food and water. Mice (average body weight 31.3±0.82 g, no difference between groups) consumed an average of 6 g of soft food per day, reaching a daily intake of 450 mg NR/kg. No difference in food intake was observed between SRF^HKO and control mice.
cDNAs were reverse transcribed from RNA (1.5 μg) extracted in TRIzol (Thermofisher) from cell cultures and tissues using the Superscript II Reverse Transcriptase (Life Technologies). Quantitative PCR was carried out on a Light Cycler 480 (Roche Diagnostics) using Fast Start SYBR Green Master (Roche Diagnostics). Quantification of gene expression was calculated as R=2^ΔCt(Ref Cp−target Cp), with Hprt used as a as reference. Primers were designed using the NCBI Primer-BLAST software. Primer sequences are available on request.

control hearts = assay: Transcriptomic analysis of control hearts after phenylephrine administration; type: in vivo, mouse; conditions: PE 80 mg/kg/day for 15 days
From the text: as §2
(§3) The series of mice treated with PE and the impact of the treatment on cardiac parameters have been published previously (Tritsch et al. (2013). An SRF/miR-1 axis regulates NCX1 and Annexin A5 protein levels in the normal and failing heart. Journal 98, 372-380). Briefly. […]

SRF^HKO hearts = assay: Transcriptomic analysis of SRF HKO hearts after phenylephrine administration; type: in vivo, mouse
From the text: as §2, §3

activity of the Nmrk2 promoter (p3009-Luc) (Nmrk2 promoter; antagonist 10 μM): repressed
Nmrk2 promoter induction by AICAR (Nmrk2 promoter): blunted
SMILES: CCC(=O)NC[C@H](Cc1ccc(OCCc2nc(-c3ccccc3)oc2C)cc1)N/C(C)=C\C(=O)c1ccc(C(F)(F)F)cc1 [G6471]

SMILES: O=C(Nc1ccccc1)c1cc([N+](=O)[O-])ccc1Cl [G9662]
Nmrk2 promoter induction by AICAR (Nmrk2 promoter): Neither the PPARβ antagonist GSK3787 nor the PPARγ antagonist G9662 had any effect

SMILES: O=C(NCCS(=O)(=O)c1ccc(C(F)(F)F)cn1)c1ccc(Cl)cc1 [GSK3787]
Nmrk2 promoter induction by AICAR (Nmrk2 promoter): Neither the PPARβ antagonist GSK3787 nor the PPARγ antagonist G9662 had any effect

activity of the Nmrk2 promoter (p3009-Luc) (Nmrk2 promoter; agonist 0.6 μM): increased
SMILES: CC(C)(Sc1ccc(CCN(CCCCC2CCCCC2)C(=O)NC2CCCCC2)cc1)C(=O)O [GW7647]

SMILES: NC(=O)c1cccnc1 [NAM, Nicotinamide]
NAD+ content in liver and heart (Lmna^H222P/H222P mice [1]): did not exhibit any changes
expression of Myh7, Nppa and Col1a2 (Lmna^H222P/H222P mice [2]): no changed expression
cardiac contractility (Lmna^H222P/H222P mice [3]): no significant changes
left-ventricular end diastolic diameter (Lmna^H222P/H222P mice [3]): no significant changes
left-ventricular end systolic diameter (Lmna^H222P/H222P mice [3]): no significant changes
Srf and Nmrk2 expression levels (SRF^HKO mice): not changed

SMILES: CNC[C@H](O)c1cccc(O)c1 [PE, phenylephrin]
Nmrk2 expression (control hearts): 4 fold
Nmrk2 expression (SRF^HKO hearts; PE 80 mg/kg/day for 15 days, SRF HKO hearts): 57 fold
Nampt and Pnp expression (SRF^HKO hearts; PE treatment): depressed
